Holding throughout (format): binding
The target in experiment [1] is T1, HeLa cell extract proteins (Homo sapiens, UniProt Q92947).
T1 construct: endogenous in cells; host or cells: HeLa cell extract
T1 sequence (Q92947 45-438): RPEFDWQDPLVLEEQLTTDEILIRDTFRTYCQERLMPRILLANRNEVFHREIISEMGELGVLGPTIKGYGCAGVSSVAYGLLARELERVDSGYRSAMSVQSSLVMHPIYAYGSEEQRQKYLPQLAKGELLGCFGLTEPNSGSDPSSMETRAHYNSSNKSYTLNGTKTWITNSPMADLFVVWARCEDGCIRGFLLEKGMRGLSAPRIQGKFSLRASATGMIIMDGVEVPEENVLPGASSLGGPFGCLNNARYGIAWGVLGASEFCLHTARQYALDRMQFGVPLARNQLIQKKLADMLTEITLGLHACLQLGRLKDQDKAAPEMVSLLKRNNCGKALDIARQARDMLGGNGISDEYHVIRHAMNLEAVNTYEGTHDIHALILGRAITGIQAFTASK

For experiment [2], the target named is T2, HeLa cell extract proteins (Homo sapiens, UniProt Q5SRE5).
T2 construct: endogenous in cells; host or cells: HeLa cell extract

Experiment [3] concerns the target T3, HeLa cell extract proteins (Homo sapiens, UniProt P25788).
T3 construct: endogenous in cells; host or cells: HeLa cell extract
T3 sequence (P25788 1-255): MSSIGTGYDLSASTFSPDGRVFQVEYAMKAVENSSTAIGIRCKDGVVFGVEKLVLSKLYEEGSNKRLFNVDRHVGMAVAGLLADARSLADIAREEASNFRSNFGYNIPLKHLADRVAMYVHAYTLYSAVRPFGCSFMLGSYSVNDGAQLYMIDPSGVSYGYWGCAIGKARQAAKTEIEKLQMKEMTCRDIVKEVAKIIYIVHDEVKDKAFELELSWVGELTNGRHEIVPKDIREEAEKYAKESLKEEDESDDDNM

The target in experiment [4] is T4, HeLa cell extract proteins (Homo sapiens, UniProt Q16637).
T4 construct: endogenous in cells; host or cells: HeLa cell extract

The target in experiment [5] is T5, HeLa cell extract proteins (Homo sapiens, UniProt P18206).
T5 construct: endogenous in cells; host or cells: HeLa cell extract
T5 sequence (P18206 1-1134): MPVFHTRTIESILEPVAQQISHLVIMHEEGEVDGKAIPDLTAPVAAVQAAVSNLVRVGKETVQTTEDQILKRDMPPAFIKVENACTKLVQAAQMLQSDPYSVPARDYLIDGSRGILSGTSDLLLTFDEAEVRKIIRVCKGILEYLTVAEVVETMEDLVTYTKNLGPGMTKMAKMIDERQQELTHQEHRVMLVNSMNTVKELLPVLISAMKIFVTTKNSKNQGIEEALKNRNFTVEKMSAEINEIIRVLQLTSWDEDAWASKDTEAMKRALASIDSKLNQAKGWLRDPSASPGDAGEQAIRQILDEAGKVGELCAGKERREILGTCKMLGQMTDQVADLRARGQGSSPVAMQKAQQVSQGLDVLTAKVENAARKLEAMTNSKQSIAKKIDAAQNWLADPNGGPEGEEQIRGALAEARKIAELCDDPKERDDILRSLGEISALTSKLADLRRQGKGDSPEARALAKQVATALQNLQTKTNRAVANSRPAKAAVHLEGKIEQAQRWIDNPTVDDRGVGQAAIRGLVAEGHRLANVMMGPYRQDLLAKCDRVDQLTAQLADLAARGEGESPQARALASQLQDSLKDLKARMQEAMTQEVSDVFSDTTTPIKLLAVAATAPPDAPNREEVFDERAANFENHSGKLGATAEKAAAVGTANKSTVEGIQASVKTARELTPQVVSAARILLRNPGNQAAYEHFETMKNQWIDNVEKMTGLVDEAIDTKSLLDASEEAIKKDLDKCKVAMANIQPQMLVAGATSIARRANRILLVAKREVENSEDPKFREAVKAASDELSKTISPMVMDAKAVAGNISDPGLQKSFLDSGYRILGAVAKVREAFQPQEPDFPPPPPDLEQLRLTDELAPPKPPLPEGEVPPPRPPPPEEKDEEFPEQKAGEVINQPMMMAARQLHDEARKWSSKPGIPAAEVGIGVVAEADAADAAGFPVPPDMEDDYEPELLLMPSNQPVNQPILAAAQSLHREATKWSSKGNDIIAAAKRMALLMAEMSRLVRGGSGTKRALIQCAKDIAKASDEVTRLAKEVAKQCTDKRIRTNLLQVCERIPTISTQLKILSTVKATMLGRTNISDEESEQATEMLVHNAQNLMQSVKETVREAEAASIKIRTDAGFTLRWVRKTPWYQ

Experiment [6] concerns the target T6, HeLa cell extract proteins (Homo sapiens, UniProt Q9H3U1).
T6 construct: endogenous in cells; host or cells: HeLa cell extract
T6 sequence (Q9H3U1 1-944): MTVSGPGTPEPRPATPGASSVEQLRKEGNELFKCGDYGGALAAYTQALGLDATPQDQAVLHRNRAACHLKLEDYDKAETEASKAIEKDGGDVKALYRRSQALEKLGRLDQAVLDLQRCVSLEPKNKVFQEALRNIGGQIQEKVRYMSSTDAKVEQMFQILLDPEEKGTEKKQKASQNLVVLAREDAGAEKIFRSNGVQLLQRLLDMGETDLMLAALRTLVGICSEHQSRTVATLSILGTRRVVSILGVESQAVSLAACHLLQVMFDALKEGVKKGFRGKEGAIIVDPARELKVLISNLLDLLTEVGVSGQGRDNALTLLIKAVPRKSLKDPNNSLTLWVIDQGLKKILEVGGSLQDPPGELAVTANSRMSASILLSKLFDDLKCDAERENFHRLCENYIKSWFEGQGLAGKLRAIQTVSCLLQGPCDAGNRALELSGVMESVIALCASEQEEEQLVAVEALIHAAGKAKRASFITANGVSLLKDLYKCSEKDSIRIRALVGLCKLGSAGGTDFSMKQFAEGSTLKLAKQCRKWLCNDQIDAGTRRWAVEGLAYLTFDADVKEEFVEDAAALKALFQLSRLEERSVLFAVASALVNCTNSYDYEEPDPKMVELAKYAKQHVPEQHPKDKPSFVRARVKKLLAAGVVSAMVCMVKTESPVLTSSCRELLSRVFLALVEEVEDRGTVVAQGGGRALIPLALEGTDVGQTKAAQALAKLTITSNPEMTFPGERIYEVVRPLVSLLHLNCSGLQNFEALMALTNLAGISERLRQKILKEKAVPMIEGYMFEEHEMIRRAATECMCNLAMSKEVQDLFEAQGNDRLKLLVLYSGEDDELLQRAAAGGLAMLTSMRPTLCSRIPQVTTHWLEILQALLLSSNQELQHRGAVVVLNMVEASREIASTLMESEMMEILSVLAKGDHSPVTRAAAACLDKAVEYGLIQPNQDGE

Read-outs that look alike come from different tables or passages of the source.

T4 sequence (Q16637 whole entry): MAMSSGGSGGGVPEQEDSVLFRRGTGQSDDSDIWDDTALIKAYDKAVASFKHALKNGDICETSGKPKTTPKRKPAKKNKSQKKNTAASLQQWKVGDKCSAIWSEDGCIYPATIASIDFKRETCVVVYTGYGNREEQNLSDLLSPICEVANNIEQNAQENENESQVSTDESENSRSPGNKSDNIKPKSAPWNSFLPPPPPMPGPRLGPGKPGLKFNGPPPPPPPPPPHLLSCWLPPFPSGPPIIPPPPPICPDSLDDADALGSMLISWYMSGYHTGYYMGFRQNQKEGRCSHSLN
T2 sequence (Q5SRE5 whole entry): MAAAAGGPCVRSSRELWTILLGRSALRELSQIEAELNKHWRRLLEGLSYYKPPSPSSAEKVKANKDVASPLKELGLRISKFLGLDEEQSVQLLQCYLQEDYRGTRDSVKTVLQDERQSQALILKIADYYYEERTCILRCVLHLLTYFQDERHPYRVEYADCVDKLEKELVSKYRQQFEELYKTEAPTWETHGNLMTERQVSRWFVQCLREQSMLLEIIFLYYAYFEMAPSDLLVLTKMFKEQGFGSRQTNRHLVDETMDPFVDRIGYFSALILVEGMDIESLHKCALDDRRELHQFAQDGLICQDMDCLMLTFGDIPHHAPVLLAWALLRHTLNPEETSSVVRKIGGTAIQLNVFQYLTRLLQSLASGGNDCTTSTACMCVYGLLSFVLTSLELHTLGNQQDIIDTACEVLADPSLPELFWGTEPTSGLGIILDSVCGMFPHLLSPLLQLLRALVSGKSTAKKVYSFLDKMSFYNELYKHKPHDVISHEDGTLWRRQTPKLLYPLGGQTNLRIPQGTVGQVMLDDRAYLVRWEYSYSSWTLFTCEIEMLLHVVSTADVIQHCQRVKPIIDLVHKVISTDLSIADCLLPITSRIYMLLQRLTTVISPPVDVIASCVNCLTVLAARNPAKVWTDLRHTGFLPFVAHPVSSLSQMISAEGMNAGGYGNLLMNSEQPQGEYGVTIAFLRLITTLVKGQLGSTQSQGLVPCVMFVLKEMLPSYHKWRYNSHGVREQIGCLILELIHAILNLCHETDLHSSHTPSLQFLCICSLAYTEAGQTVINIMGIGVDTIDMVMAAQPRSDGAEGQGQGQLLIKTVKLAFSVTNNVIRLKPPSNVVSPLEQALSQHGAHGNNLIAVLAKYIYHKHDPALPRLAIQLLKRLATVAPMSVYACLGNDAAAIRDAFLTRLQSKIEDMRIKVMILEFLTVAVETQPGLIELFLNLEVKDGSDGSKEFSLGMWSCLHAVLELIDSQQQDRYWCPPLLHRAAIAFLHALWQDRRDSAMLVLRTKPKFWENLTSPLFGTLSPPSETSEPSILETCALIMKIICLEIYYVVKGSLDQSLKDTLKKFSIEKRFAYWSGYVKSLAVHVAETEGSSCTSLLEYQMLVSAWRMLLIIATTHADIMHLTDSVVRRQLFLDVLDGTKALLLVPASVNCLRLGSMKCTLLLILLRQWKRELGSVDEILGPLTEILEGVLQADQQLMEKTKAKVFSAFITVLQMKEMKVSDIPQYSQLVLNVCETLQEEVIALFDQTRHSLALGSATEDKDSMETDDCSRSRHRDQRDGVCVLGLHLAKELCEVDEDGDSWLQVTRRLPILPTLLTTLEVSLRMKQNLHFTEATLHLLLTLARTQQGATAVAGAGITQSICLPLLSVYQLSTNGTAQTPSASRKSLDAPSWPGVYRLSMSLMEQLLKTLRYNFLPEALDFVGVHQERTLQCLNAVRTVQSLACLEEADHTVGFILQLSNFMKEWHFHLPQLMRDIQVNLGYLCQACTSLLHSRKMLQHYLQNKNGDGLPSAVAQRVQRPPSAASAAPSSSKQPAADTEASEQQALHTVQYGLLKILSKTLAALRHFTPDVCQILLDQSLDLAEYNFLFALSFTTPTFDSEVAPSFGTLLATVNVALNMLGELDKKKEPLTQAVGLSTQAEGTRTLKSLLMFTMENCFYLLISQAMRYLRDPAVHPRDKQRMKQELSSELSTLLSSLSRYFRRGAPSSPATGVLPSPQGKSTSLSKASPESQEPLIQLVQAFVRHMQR

As for `CCCCCCOc1cccc(Cc2cnc(N)nc2N)c1` [compound 2], the “fold changes relative to vehicle control” value stood at 0.95 in experiment [1] (captured protein GCDH, HeLa); 1.08 in experiment [2] (HeLa, protein NUP188); 1.27 in experiment [3] (protein PSMA3, HeLa); 1.09 in experiment [4] (protein SMN1, HeLa); 1.8 in experiment [5] (protein VCL, HeLa); 1.53 in experiment [6] (protein UNC45A, HeLa).

Consider `NCCOCCOCC(=O)Nc1nc2ncc(CNc3ccc(C(=O)NC(CCC(=O)O)C(=O)O)cc3)nc2c(=O)[nH]1` (stereo not drawn) [compound 6], for which the “fold changes relative to vehicle control” value in experiment [1] (HeLa, captured protein GCDH) was 0.62; in experiment [2] (HeLa, captured protein NUP188), 1.17; in experiment [3] (HeLa, captured protein PSMA3), 1.01; in experiment [4] (HeLa, protein SMN1) it was 1.16; in experiment [5] (protein VCL, HeLa) it was 1.21; in experiment [6] (HeLa, protein UNC45A), 1.16.

As to `CCCCCCOc1ccc(Cc2cnc(N)nc2N)cc1` [compound 1], the “fold changes relative to vehicle control” value in experiment [1] (captured protein GCDH, HeLa) was 0.91; in experiment [2] (HeLa, protein NUP188), 1.07; in experiment [3] (protein PSMA3, HeLa), 1.04; in experiment [4] (protein SMN1, HeLa), 1; in experiment [5] (protein VCL, HeLa), 1.12; in experiment [6] (protein UNC45A, HeLa) it was 1.44.

On to `Nc1nc2c(c(=O)[nH]1)N(C=O)C(CNc1ccc(C(=O)N[C@@H](CCC(=O)O)C(=O)O)cc1)CN2` (stereo partly drawn) [LEU, leucovorin], for which the “fold changes relative to vehicle control” value in experiment [1] (HeLa, captured protein GCDH) is given as 0.96; in experiment [2] (HeLa, captured protein NUP188), 1.13; in experiment [3] (HeLa, captured protein PSMA3), 1.02; in experiment [4] (HeLa, protein SMN1), 0.94; in experiment [5] (protein VCL, HeLa) it was 0.98; in experiment [6] (HeLa, protein UNC45A) it was 1.07.

In the case of `NCCCNc1ccc(C(=O)NC(CCC(=O)O)C(=O)O)cc1` (stereo not drawn) [compound 7], the “fold changes relative to vehicle control” value in experiment [1] (HeLa, captured protein GCDH) is given as 0.98; in experiment [2] (HeLa, captured protein NUP188), 1.07; in experiment [3] (HeLa, captured protein PSMA3), 0.98; in experiment [4] (HeLa, protein SMN1), 0.97; in experiment [5] (protein VCL, HeLa) it was 0.96; in experiment [6] (HeLa, protein UNC45A), 1.05.

Turning to `Nc1nc2[nH]cc(CCc3ccc(C(=O)N[C@@H](CCC(=O)O)C(=O)O)cc3)c2c(=O)[nH]1` [PTX, pemetrexed], the “fold changes relative to vehicle control” value worked out at 0.75 in experiment [1]; 1.17 in experiment [2]; 0.99 in experiment [3]; 0.99 in experiment [4]; 1.06 in experiment [5]; 0.99 in experiment [6].

Take `Nc1nc2cccc(-c3ccccc3)c2n1Cc1ccc(Cl)c(Cl)c1` [compound 3]: the “fold changes relative to vehicle control” value came to 0.98 in experiment [1] (captured protein GCDH, HeLa); 1.07 in experiment [2] (HeLa, protein NUP188); 0.86 in experiment [3] (protein PSMA3, HeLa); 0.98 in experiment [4] (protein SMN1, HeLa); 0.99 in experiment [5] (protein VCL, HeLa); 0.97 in experiment [6] (protein UNC45A, HeLa).

The record behind these values is PMC6199744, “Development of Chemical Proteomics for the Folateome and Analysis of the Kinetoplastid Folateome” (ACS Infectious Diseases, 2018).
